How the values were obtained:
Cathepsin B = Cathepsin B (Homo sapiens, UniProt P07858); assay: Cathepsin B cleavage assay of dipeptide linker-drug constructs; assay type: biochemical; details: NAC-quenched linker-drug, 2.5, 5 or 10 mol % enzyme, pH 6.0, room temperature, 15-90 min
Experimental: Initially linker drug constructs from Examples 3 and 4 were treated with IM N-acetyl cysteine solution to quench maleimide functionality prior to the cathepsin B treatment. Excess of N-acetyl cysteine is used to activate the Cathepsin B.
More specifically quenched linker-drugs in 1:1 acetonitrile:water solution (20 ul) were diluted with 20 mM HisC1 pH 6.0 to a final acetonitrile content of 10% v/v ([…]). Cathepsin B enzyme was added to result in 2.5 mol %, 5 mol % or 10 mol % enzyme relative to the linker-drug. Reactions were vortexed gently and kept at room temperature. At the time points of 15, 30, 60 and 90 min 3 ul of the reaction mixture were placed into the total recovery vial containing 5 uL Tris pH 9, 2 uL 100 mM […] (DHAA), 15 ul water. The samples were analyzed using Analytical Method B set forth above. Conversion was calculated based on the decrease of the starting material peak area.

293 T cells = assay: In vitro cell killing by calicheamicin and linker-drug constructs (CellTiter-Glo, 72 hours); assay type: cell-based
Experimental: (§1) 293 T cells were used along with MES SA and MES SA/Dx cells which comprise uterine sarcoma lines purchased from ATCC. The MES SA/Dx cell line was generated from MES SA cells cultured with increasing amounts of doxorubicin resulting in 100-fold resistance to doxorubicin and upregulation of MDR1.
(§2) The cells were cultured in a T75 flask to ˜50-80% confluency and harvested with trypsin into a single cell suspension. Five hundred (500) cells per well were seeded in tissue culture plates in 50 μL/well culture media and incubated at 37° C. for 18-24 hours. Compounds were diluted as 400× final desired concentrations in DMSO. Serial dilutions in DMSO were then diluted in culture media for a final DMSO concentration of 0.25% and 50 μL/well of the final dilution was added to the cells (Vf=100 μL). Upon plating and treatment, cells were returned to the incubator for an additional 72 hours. CellTiter-Glo reagent was prepared per manufacturer's instructions and added at 100 μL/well to the cultures. CellTiter-Glo allows for relative enumeration of metabolically active cells by quantifying intracellular ATP concentrations. After 5 minutes of incubation with CellTiter-Glo at ambient room temperature, 125 μL/well of the Cell Titer Glo/cell lysate solution was transferred into black assay plates, which were then read in a luminometer within 30 minutes.

[1] = test system: MES SA cells (uterine sarcoma line); assay: as above; assay type: cell-based; details: for IC50: MES SA
Experimental: as §1, §2

[2] = test system: MES SA/Dx cells (doxorubicin-resistant uterine sarcoma line, MDR1 upregulated); assay: as above; assay type: cell-based
Experimental: as §1, §2

[3] = SMALL MOLECULE IVK (10 nM start, 5X dilutions)
[4] = SMALL MOLECULE IVK (10 nM start, 5X dilutions), listed as N acetyl calicheamicin (lot B)
[5] = LINKER DRUG IVK (1000 nM start, 10X dilutions)

Row | SMILES | cleavage by Cathepsin B (Cathepsin B) | IC50 (293 T cells; [3]) [nM] | IC50 (293 T cells; [4]) [nM] | IC50 [1, 3] [nM] | IC50 [1, 4] [nM] | derived IC50 values, range of activity ([1]; summary of Table 5) | IC50 [2, 3] [nM] | IC50 [2, 4] [nM] | rate of cleavage by Cathepsin B, compared between constructs (Cathepsin B) | IC50 (293 T cells; [5]) [nM] | IC50 [1, 5] [nM] | IC50 [2, 5] [nM]
1 | CCN(C(C)=O)[C@H]1CO[C@@H](O[C@H]2[C@H](O[C@H]3C#C/C=C\C#C[C@]4(O)CC(=O)C(NC(=O)OC)=C3/C4=C\CSSC(C)(C)CCC(=O)NCCNC(=O)OCc3ccc(NC(=O)[C@H](C)NC(=O)[C@@H](NC(=O)CCCCCN4C(=O)C=CC4=O)C(C)C)cc3)O[C@H](C)[C@@H](NO[C@H]3C[C@H](O)[C@H](SC(=O)c4c(C)c(I)c(O[C@@H]5O[C@@H](C)[C@H](O)[C@@H](OC)[C@H]5O)c(OC)c4OC)[C@@H](C)O3)[C@H]2O)C[C@@H]1OC [Val-Ala calicheamicin] | effectively cleaved | – | – | – | – | – | – | – | – | – | – | –
2 | CCN(C(C)=O)[C@H]1CO[C@@H](O[C@H]2[C@H](O[C@H]3C#C/C=C\C#C[C@]4(O)CC(=O)C(NC(=O)OC)=C3/C4=C\CSSSC)O[C@H](C)[C@@H](NO[C@H]3C[C@H](O)[C@H](SC(=O)c4c(C)c(I)c(O[C@@H]5O[C@@H](C)[C@H](O)[C@@H](OC)[C@H]5O)c(OC)c4OC)[C@@H](C)O3)[C@@H]2O)C[C@@H]1OC [N acetyl calicheamicin (lot A), N-acetyl calicheamicin γ 1] | – | 0.0409 | 0.052 | 0.0308 | 0.0693 | picomolar range | 30.6 | 17.1 | – | – | – | –
3 | CCN(C(C)=O)[C@H]1CO[C@@H](O[C@H]2[C@H](O[C@H]3C#C/C=C\C#C[C@]4(O)CC(=O)C(NC(=O)OC)=C3/C4=C\CSSC(C)(C)CCC(=O)NCCNC(=O)OCc3ccc(NC(=O)[C@H](CCCNC(N)=O)NC(=O)[C@@H](NC(=O)CCCCCN4C(=O)C=CC4=O)C(C)C)cc3)O[C@H](C)[C@@H](NO[C@H]3C[C@H](O)[C@H](SC(=O)c4c(C)c(I)c(O[C@@H]5O[C@@H](C)[C@H](O)[C@@H](OC)[C@H]5O)c(OC)c4OC)[C@@H](C)O3)[C@H]2O)C[C@@H]1OC [Val-Cit calicheamicin] | effectively cleaved | – | – | – | – | – | – | – | cleaved more rapidly than the Val-Ala dipeptidyl construct | 46 | 6.3 | > 1000

— US20180133337A1, “CALICHEAMICIN CONSTRUCTS AND METHODS OF USE” (priority 2015, published 2018)
